Assay results as given in patent publication US20100210722A1, “COMPOSITION FOR PREVENTING OR TREATING LIPID METABOLIC DISORDERS COMPRISING FUCOXANTHIN OR MARINE PLANT EXTRACT CONTAINING SAME” (AMICOGEN, INC., priority 2007, published 2010).
Marks after values point to notes of the source that are not given here.

Legend:
Type in all cases: in vivo, C57BL/6N/CriBgi mice
malic enzyme (ME) = assay: ME activity in liver tissue; conditions: high fat diet, 6 weeks
Excerpt: (§1) Test diets were as follows: “normal diet group”=AIN-76 semisynthetic diet of Teklad (Madison, Wl, USA); “high fat diet group”=normal diet+10% of corn oil and 10% of lard; “test group I”=high fat diet+fucoxanthin extract of Example 1 (fucoxanthin content=0.05%); “test group II”=high fat diet+fucoxanthin extract of Example 1 (fucoxanthin content=0.2%); “test group III”=high fat diet+fucoxanthin extract of Example 2 (fucoxanthin content=0.05%); “test group IV”=high fat diet+fucoxanthin extract of Example 2 (fucoxanthin content=0.2%). The 6 diets (normal diet, high fat diet, and test I, II, III and IV) were given to the animals for 6 weeks. Diet intake was recorded every day, and body weight was measured once a week.
(§2) The supernatant was centrifuged again at 12,000×g for 15 minutes. Then, the supernatant was subjected to high-speed centrifuging (Beckman, Optima TLX-120, USA) at 100,000×g for 1 hour. Then, change of the activity of enzymes involved in the synthesis of fatty acid—fatty acid synthase (FAS), glucose-6-phosphate dehydrogenase (G6PD) and malic enzyme (ME)—was measured.
The ME enzyme is also an enzyme that supplied reducing energy required for the synthesis of fatty acid. […] ME activity was determined as follows. […] After 2 minutes of reaction at 27° C., absorbance was measured at 340 nm. ME activity was calculated as nmol of NADPH produced per 1 mg of protein in cell per minute.

CPT mRNA = assay: Expression of mRNA for CPT in adipose tissue (real-time PCR); conditions: normal diet = 1.00, GAPDH internal marker
Excerpt: as §1
(§3) 5 mL of Trizol was added to 0.5 g of white adipose tissue. After pulverizing in liquid nitrogen using a mortar, the tissue was added to 1 mL of chloroform. […] The isolated RNA was diluted and absorbance was measured at 260 nm using a UV spectrometer. […]
(§4) Thus prepared cDNA was […] 10-fold, and primers for analyzing the expression of the respective genes (CPT, β-oxidation, FAS, ME and G6PD) were obtained from Genotech (Daejeon, Korea). […] Fluorescence signals were monitored for each cycle and threshold cycle (Cr) was analyzed for quantitative analysis of mRNA for the test groups (Applied Biosystems, SDS7000) (Livak, 2001). […]

[1] = tested on: lipoprotein lipase (LPL) mRNA; assay: Expression of mRNA for LPL in liver tissue (real-time PCR)
[2] = tested on: glucose-6-phosphate dehydrogenase (G6PD); assay: G6PD activity in adipose tissue; conditions: high fat diet, 6 weeks
Excerpt: as §1, §2
The G6PD enzyme is an enzyme that supplied reducing energy required for the synthesis of fatty acid. […] G6PD activity was measured at 340 nm by the degree of reduction of NADP^+ to NADPH by G6PD. […] G6PD activity was calculated as nmol of NADPH produced per 1 mg of protein in cell per minute.

[3] = Amount of feces and cholesterol content in feces; conditions: high fat diet, 6 weeks
Procedure: Seventy (70) 4-week-old male C57BL/6N/CriBgi mice weighing 14 g were purchased from Orient, and reared in separate cages maintained at 24° C. and relative humidity of 55%, providing light from 08:00 until 20:00. The mice were accustomed while providing a pellet type diet for a week. The mice, which weighed 18.5-18.7 g, were grouped into seven groups by the randomized block design. Each group was given a different diet, as follows.
as §1
Feces were taken from the mice fed with the test diets for 6 weeks of Reference Example 1. The amount of feces and cholesterol content in the feces were measured.

ME mRNA = assay: Expression of mRNA for ME in adipose tissue (real-time PCR); conditions: normal diet = 1.00, GAPDH internal marker
Excerpt: as §1, §3, §4

[4] = tested on: peroxisome proliferator-activated receptor α (PPARα) mRNA; assay: Expression of mRNA for PPARα in liver tissue (real-time PCR)
[5] = fucoxanthin content 0.05% (Test I/III)
[6] = fucoxanthin content 0.2% (Test II/IV)
[7] = normal diet = 1.00, fucoxanthin content 0.05% (Test I/III)
[8] = normal diet = 1.00, fucoxanthin content 0.2% (Test II/IV)

CC(=O)O[C@H]1CC(C)(C)C(=C=C/C(C)=C/C=C/C(C)=C/C=C/C=C(C)/C=C/C=C(\C)C(=O)C[C@@]23O[C@]2(C)C[C@@H](O)CC3(C)C)[C@](C)(O)C1 [highly pure fucoxanthin, Fucoxanthin]
ME activity (malic enzyme (ME); [5]): 77.06 ± 7.08^a mmol/min/mg protein | ME activity (malic enzyme (ME); [6]): 73.91 ± 6.37^a mmol/min/mg protein | Expression of mRNA, CPT (CPT mRNA; [5]): 1.65 ± 0.15^c | Expression of mRNA, CPT (CPT mRNA; [6]): 1.51 ± 0.06^bc | Expression of mRNA, LPL [1, 7]: 2.11 ± 0.09^b | Expression of mRNA, LPL [1, 8]: 1.20 ± 0.14^a | G6PD activity [2, 5]: 1.25 ± 0.27^a mmol/min/mg protein | G6PD activity [2, 6]: 1.27 ± 0.15^a mmol/min/mg protein | Amount of feces [3, 5]: 0.226 ± 0.01^c g/day | Cholesterol content in feces [3, 5]: 237.88 ± 10.39^c umol/g | Amount of feces [3, 6]: 0.209 ± 0.01^bc g/day | Cholesterol content in feces [3, 6]: 508.79 ± 13.25^c umol/g | Expression of mRNA, ME (ME mRNA; [5]): 0.70 ± 0.07^ab | Expression of mRNA, ME (ME mRNA; [6]): 0.52 ± 0.06^a | Expression of mRNA, PPARα [4, 7]: 1.22 ± 0.08^ab | Expression of mRNA, PPARα [4, 8]: 1.57 ± 0.36^b
